Assay results as given in US20230278996A1, “YKL-40 INHIBITORS AND THEIR THERAPEUTIC APPLICATIONS” (Molecure S.A., priority 2022, published 2023).
Where a name gives a salt, the structure may show the parent alone.

These compounds were tested against YKL-40 (Homo sapiens (Human), UniProt P36222) (assay: YKL-40:4 assay, competitive chitin binding site AlphaScreen). Settings: competition with biotinylated compound 4 (20 nM), YKL-40-histag 2.5 nM.
Sequence of YKL-40 (P36222 22-383): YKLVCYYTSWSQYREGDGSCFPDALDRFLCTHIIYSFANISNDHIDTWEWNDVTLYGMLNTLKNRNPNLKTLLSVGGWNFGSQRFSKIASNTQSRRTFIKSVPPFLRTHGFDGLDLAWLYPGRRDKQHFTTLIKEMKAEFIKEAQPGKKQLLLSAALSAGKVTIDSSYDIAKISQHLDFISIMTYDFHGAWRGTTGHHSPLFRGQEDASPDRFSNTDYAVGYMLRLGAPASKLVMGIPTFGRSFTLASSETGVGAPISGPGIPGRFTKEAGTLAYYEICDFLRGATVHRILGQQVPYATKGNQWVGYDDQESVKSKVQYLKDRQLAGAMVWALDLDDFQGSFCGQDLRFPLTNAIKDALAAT

| IC50 | Structure (SMILES) |
| --- | --- |
| < 0.1 µM | Clc1ccc(C[C@H]2CN3CCC[C@H]3CN2C2CCN(c3ccccn3)CC2)cc1 [Example 38, (3S,8aS)-3-(4-chlorobenzyl)-2-(1-(pyridin-2-yl)piperidin-4-yl)octahydropyrrolo[1,2-α]pyrazine 2,2,2-trifluoroacetate] |
| 0.1 to 1 µM | Cc1ccnc(N2CCC(N3C[C@H](C)OC[C@@H]3Cc3ccc(Cl)cc3)CC2)n1 [Example 39, (2S,5S)-5-(4-chlorobenzyl)-2-methyl-4-(1-(4-methylpyrimidin-2-yl)piperidin-4-yl)morpholine dihydrochloride] |
| 0.1 to 1 µM | O[C@@H]1C[C@H]2CN(C3CCN(c4ncccn4)CC3)[C@@H](Cc3ccc(Cl)cc3)CN2C1 [Example 40, (3S,7R,8aS)-3-(4-chlorobenzyl)-2-(1-(pyrimidin-2-yl)piperidin-4-yl)octahydropyrrolo[1,2-α]pyrazin-7-ol 2,2,2-trifluoroacetate] |
| 0.1 to 1 µM | Cc1ccnc(N2CCC(N3C[C@@H]4C[C@@H](O)CN4C[C@@H]3Cc3ccc(Cl)cc3)CC2)n1 [Example 41, (3S,7R,8aS)-3-(4-chlorobenzyl)-2-(1-(4-methylpyrimidin-2-yl)piperidin-4-yl)octahydropyrrolo[1,2-α]pyrazin-7-ol 2,2,2-trifluoroacetate] |
| 0.1 to 1 µM | O[C@H]1C[C@H]2CN(C3CCN(c4ncccn4)CC3)[C@@H](Cc3ccc(Cl)cc3)CN2C1 [Example 42, (3S,7S,8aS)-3-(4-chlorobenzyl)-2-(1-(pyrimidin-2-yl)piperidin-4-yl)octahydropyrrolo[1,2-α]pyrazin-7-ol 2,2,2-trifluoroacetate] |
| 0.1 to 1 µM | Cc1ccnc(N2CCC(N3C[C@@H]4C[C@H](O)CN4C[C@@H]3Cc3ccc(Cl)cc3)CC2)n1 [Example 43, (3S,7S,8aS)-3-(4-chlorobenzyl)-2-(1-(4-methylpyrimidin-2-yl)piperidin-4-yl)octahydropyrrolo[1,2-α]pyrazin-7-ol 2,2,2-trifluoroacetate] |
| 1 to 10 µM | C[C@H]1CN(C2CCN(c3ncc(F)cn3)CC2)[C@@H](Cc2ccc(Cl)cc2)CO1 [compound 46, (2S,5S)-5-(4-chlorobenzyl)-4-(1-(5-fluoropyrimidin-2-yl)piperidin-4-yl)-2-methylmorpholine 2,2,2-trifluoroacetate] |
| 0.1 to 1 µM | Cc1ccnc(N2CCC(N3C[C@H](C)OC[C@@H]3Cc3ccc(Cl)cc3)CC2)c1C#N [compound 47, 2-(4-((2S,5S)-5-(4-chlorobenzyl)-2-methylmorpholino)piperidin-1-yl)-4-methyl-nicotinonitrile 2,2,2-trifluoroacetate] |
| 10 to 100 µM | C[C@H]1CN(C2CCN(c3ncccc3C(F)(F)F)CC2)[C@@H](Cc2ccc(Cl)cc2)CO1 [compound 49, (2S,5S)-5-(4-chlorobenzyl)-2-methyl-4-(1-(3-(trifluoromethyl)pyridin-2-yl)-piperidin-4-yl)morpholine 2,2,2-trifluoroacetate] |
| 1 to 10 µM | CO[C@@H]1CN(c2cc(Cl)ccn2)CC[C@@H]1N1C[C@H](C)OC[C@@H]1Cc1ccc(Cl)cc1 [compound 59, (2S,5S)-5-(4-chlorobenzyl)-4-((3R,4S)-1-(4-chloropyridin-2-yl)-3-methoxypiperidin-4-yl)-2-methylmorpholine 2,2,2-trifluoroacetate] |
| 10 to 100 µM | CO[C@H]1CN(c2cc(Cl)ccn2)CC[C@@H]1N1C[C@H](C)OC[C@@H]1Cc1ccc(Cl)cc1 [compound 60, (2S,5S)-5-(4-chlorobenzyl)-4-((3S,4S)-1-(4-chloropyridin-2-yl)-3-methoxypiperidin-4-yl)-2-methylmorpholine 2,2,2-trifluoroacetate] |
| < 0.1 µM | CC(C)[C@H]1CN(C2CCN(c3ccccn3)CC2)[C@@H](Cc2ccc(Cl)cc2)CN1C [compound 62, (2S,5S)-2-(4-chlorobenzyl)-5-isopropyl-4-methyl-1-(1-(pyridin-2-yl)piperidin-4-yl)piperazine 2,2,2-trifluoroacetate] |
| 0.1 to 1 µM | CN1CCN(C2CCN(c3ccccn3)CC2)[C@@H](Cc2ccc(Cl)cc2)C1 [compound 64, (S)-2-(4-chlorobenzyl)-4-methyl-1-(1-(pyridin-2-yl)piperidin-4-yl)piperazine 2,2,2-trifluoroacetate] |
| > 100 µM | C[C@H]1CN(C2CCN(c3ccnc(Cl)n3)CC2)[C@@H](Cc2ccc(Cl)cc2)CO1 [compound 66, (2S,5S)-5-(4-chlorobenzyl)-4-(1-(2-chloropyrimidin-4-yl)piperidin-4-yl)-2-methylmorpholine] |
| > 100 µM | C[C@H]1CN(C2CCN(c3ccnc(N)n3)CC2)[C@@H](Cc2ccc(Cl)cc2)CO1 [compound 67, 4-(4-((2S,5S)-5-(4-chlorobenzyl)-2-methylmorpholino)piperidin-1-yl)pyrimidin-2-amine 2,2,2-trifluoroacetate] |
| 1 to 10 µM | CN1CCN(C[C@H]2CN(C3CCN(c4ncccn4)CC3)[C@@H](Cc3ccc(Cl)cc3)CO2)CC1 [compound 71, (2S,5S)-5-(4-chlorobenzyl)-2-((4-methylpiperazin-1-yl)methyl)-4-(1-(pyrimidin-2-yl)piperidin-4-yl)morpholine 2,2,2-trifluoroacetate] |
| 1 to 10 µM | CN(C)CCN(C)C[C@H]1CN(C2CCN(c3ncccn3)CC2)[C@@H](Cc2ccc(Cl)cc2)CO1 [compound 72, N^1-(((2S,5S)-5-(4-chlorobenzyl)-4-(1-(pyrimidin-2-yl)piperidin-4-yl)morpholin-2-yl)methyl)-N^1,N^2,N^2-trimethylethane-1,2-diamine 2,2,2-trifluoroacetate] |
| 1 to 10 µM | O[C@@H]1CCN(C[C@H]2CN(C3CCN(c4ncccn4)CC3)[C@@H](Cc3ccc(Cl)cc3)CO2)C1 [compound 73, (R)-1-(((2S,5S)-5-(4-chlorobenzyl)-4-(1-(pyrimidin-2-yl)piperidin-4-yl)morpholin-2-yl)methyl)pyrrolidin-3-ol 2,2,2-trifluoroacetate] |
| 1 to 10 µM | O[C@H]1CCN(C[C@H]2CN(C3CCN(c4ncccn4)CC3)[C@@H](Cc3ccc(Cl)cc3)CO2)C1 [compound 74, (S)-1-(((2S,5S)-5-(4-chlorobenzyl)-4-(1-(pyrimidin-2-yl)piperidin-4-yl)morpholin-2-yl)methyl)pyrrolidin-3-ol 2,2,2-trifluoroacetate] |
| 0.1 to 1 µM | CC(=O)NC[C@H]1CN(C2CCN(c3ncccn3)CC2)[C@@H](Cc2ccc(Cl)cc2)CO1 [compound 75, N-(((2S,5S)-5-(4-chlorobenzyl)-4-(1-(pyrimidin-2-yl)piperidin-4-yl)morpholin-2-yl)methyl)acetamide 2,2,2-trifluoroacetate] |
| > 100 µM | O=C1c2ccccc2C(=O)N1C[C@H]1CN(C2CCN(c3ncccn3)CC2)[C@@H](Cc2ccc(Cl)cc2)CO1 [compound 76, 2-(((2R,5S)-5-(4-chlorobenzyl)-4-(1-(pyrimidin-2-yl)piperidin-4-yl)morpholin-2-yl)methyl)isoindoline-1,3-dione dihydrochloride] |
| 1 to 10 µM | O=C1CCC(=O)N1C[C@H]1CN(C2CCN(c3ncccn3)CC2)[C@@H](Cc2ccc(Cl)cc2)CO1 [compound 77, 1-(((2R,5S)-5-(4-chlorobenzyl)-4-(1-(pyrimidin-2-yl)piperidin-4-yl)morpholin-2-yl)methyl)pyrrolidine-2,5-dione 2,2,2-trifluoroacetate] |
| 1 to 10 µM | O=C1CNC(=O)N1C[C@H]1CN(C2CCN(c3ncccn3)CC2)[C@@H](Cc2ccc(Cl)cc2)CO1 [compound 78, 3-(((2R,5S)-5-(4-chlorobenzyl)-4-(1-(pyrimidin-2-yl)piperidin-4-yl)morpholin-2-yl)methyl)imidazolidine-2,4-dione 2,2,2-trifluoroacetate] |
| < 0.1 µM | CN1CCN(C[C@H]2CN(C3CCN(c4cc(Cl)ccn4)CC3)[C@@H](Cc3ccc(Cl)cc3)CN2C)CC1 [compound 83, (2S,5S)-2-(4-chlorobenzyl)-1-(1-(4-chloropyridin-2-yl)piperidin-4-yl)-4-methyl-5-((4-methylpiperazin-1-yl)methyl)piperazine 2,2,2-trifluoroacetate] |
| > 100 µM | CN1C[C@H](Cc2ccc(Cl)cc2)N(C2CCN(c3cc(Cl)ccn3)CC2)C[C@@H]1COc1ccc2ccccc2c1 [compound 84, (2S,5R)-2-(4-chlorobenzyl)-1-(1-(4-chloropyridin-2-yl)piperidin-4-yl)-4-methyl-5-((naphthalen-2-yloxy)methyl)piperazine 2,2,2-trifluoroacetate] |
| 10 to 100 µM | C[C@H]1CN(C2CCN(c3ccccn3)C(=O)C2)[C@@H](Cc2ccc(Cl)cc2)CO1 (stereo partly drawn) [compound 85, 4-((2S,5S)-5-(4-chlorobenzyl)-2-methylmorpholino)-1-(pyridin-2-yl)piperidin-2-one 2,2,2-trifluoroacetate] |

| Structure (SMILES) | IC50 |
| --- | --- |
| C[C@H]1CN(C2CCN(c3ccccc3)CC2)[C@@H](Cc2ccc(Cl)cc2)CO1 [Example 37, (2S,5S)-5-(4-chlorobenzyl)-2-methyl-4-(1-phenylpiperidin-4-yl)morpholine dihydrochloride] | > 100 µM |
| CN1C[C@H](Cc2ccc(Cl)cc2)N(C2CCN(c3cc(Cl)ccn3)CC2)C[C@@H]1CO [compound 50, ((2R,5S)-5-(4-chlorobenzyl)-4-(1-(4-chloropyridin-2-yl)piperidin-4-yl)-1-methyl-piperazin-2-yl)methanol] | < 0.1 µM |
| C[C@H]1CN(C2C[C@H]3CC[C@@H](C2)N3c2cc(Cl)ccn2)[C@@H](Cc2ccc(Cl)cc2)CO1 (stereo partly drawn) [compound 58, (2S,5S)-5-(4-chlorobenzyl)-4-((1R,5S)-8-(4-chloropyridin-2-yl)-8-azabicyclo[3.2.1]octan-3-yl)-2-methylmorpholine 2,2,2-trifluoroacetate] | > 100 µM |
| CN(C)C(=O)OC[C@H]1CN(C2CCN(c3ncccn3)CC2)[C@@H](Cc2ccc(Cl)cc2)CO1 [compound 70, ((2R,5S)-5-(4-chlorobenzyl)-4-(1-(pyrimidin-2-yl)piperidin-4-yl)morpholin-2-yl)methyl dimethylcarbamate 2,2,2-trifluoroacetate] | 1 to 10 µM |
| Clc1ccc(C[C@H]2COc3ccccc3CN2C2CCN(c3ccccn3)CC2)cc1 [compound 81, (S)-3-(4-chlorobenzyl)-4-(1-(pyridin-2-yl)piperidin-4-yl)-2,3,4,5-tetrahydrobenzo[f][1,4]oxazepine hydrochloride] | > 100 µM |
